# Data published in patent publication US9884814B2, “Acylguanidines for treating osteoarthritis” (Merck Patent GmbH, priority 2013, dated 2018).
# Test system: CAR-induced swelling, rat knee joint
# Conditions: intra-articular, 30 minutes before CAR, TAC 10 μg/joint
# Procedure: In order to induce an inflammation reaction, a carrageenan solution (CAR, 1%, 50 μl) was injected intra-articularly on one side into a rat knee joint. The uninjected side was used for control purposes. Six animals per group were used.
# The specific cathepsin D inhibitors according to the invention were administered out intra-articularly 30 minutes before the CAR.
compound,measurement,value
"C[C@]12C=CC(=O)C=C1CC[C@H]1[C@@H]3C[C@@H](O)[C@](O)(C(=O)CO)[C@@]3(C)C[C@H](O)[C@@]12F [TAC, Triamcinolone]",reduction of CAR-induced swelling,capable of reducing the CAR-induced swelling
